According to PMC7179685, “Iminosugars With Endoplasmic Reticulum α-Glucosidase Inhibitor Activity Inhibit ZIKV Replication and Reverse Cytopathogenicity in vitro” (Frontiers in Microbiology, 2020):
Counter-ions that a name gives are not always drawn.

Columns and labels:
Vero cells = assay: Cytotoxicity, MTS cell viability assay in Vero cells; type: cell-based, African green monkey; conditions: 72 h post treatment; for metabolic activity (cytotoxicity, MTS): 1000 μM; for metabolic activity compared to vehicle control (cytotoxicity, MTS): 0.01 to 100 μM
Description: (§1) A cell viability assay was used to evaluate both the cytotoxicity and antiviral abilities of the iminosugars with appropriate controls as previously described ([Fletcher et al., 2000]) using the CellTiter 96® AQueous One Solution Cell Proliferation Assay (MTS, Promega, Madison, WI, United States) following the manufacturer’s instructions. At 60–70% confluence, Vero cells and CHME3 cells were pretreated with iminosugars for 2 h and then infected with ZIKV according to the plate layout shown in Supplementary Figure S1. Four biological replicates were used to assess cytotoxicity, and six replicates were used to assess the antiviral ability of each iminosugar with concentrations ranging from 0.01 to 1000 μM or vehicle (sterile nuclease-free water). Cells treated with iminosugars or vehicle control were infected with ZIKV strain PRVABC59, IBH30656 or MEX 2-81 at a multiplicity of infection (MOI) of 1 in infection medium consisting of DMEM supplemented with 5% FBS and 1% antibiotic/antimycotic solution. The CHME3 infection medium was additionally supplemented with 0.1% non-essential amino acids (NEAA). At 72 h post-infection (hpi), MTS solution was added to the wells, and after 2 h, the optical density was measured at 490 nm using a microplate reader (ELx800; BioTek, Winooski, VT, United States). Previous studies have shown that ER α-glucosidase inhibitor, Celgosivir prevents DENV secretion in primary human macrophages with an EC50 of 5 μM and has CC50 greater than 1000 μM in MBDK cells ([Whitby et al., 2004]; [Sung et al., 2016]).

CHME3 cells [1] = assay: Cytotoxicity, MTS cell viability assay in CHME3 cells; type: cell-based, Human; conditions: 72 h post treatment; for metabolic activity (cytotoxicity, MTS): 1000 μM; for metabolic activity compared to vehicle control (cytotoxicity, MTS): 0.01 to 100 μM
Description: as §1

ZIKV PRVABC59 [2] = assay: Virus yield reduction assay (qRT-PCR and TCID50) in Vero cells; type: cell-based, Zika virus; conditions: 1 μM, 48 hpi; for PRVABC59 ZIKV RNA in supernatant compared with vehicle control (qRT-PCR): MOI 0.5 and MOI 5, p ≤ 0.0318; for infectious PRVABC59 ZIKV titers (TCID50): MOI 0.5 and MOI 5, p ≤ 0.0433
Description: (§2) Zika virus yield reduction following treatment with iminosugars was assessed by measuring the NS1 gene by a previously described quantitative reverse transcription-polymerase chain reaction (qRT-PCR) and infectious virus titration in Vero cells ([Reed and Muench, 1938]; [Goebel et al., 2016]). Vero and CHME3 cells pre-treated 1 μM of castanospermine, celgosivir or DNJ for 2 h and then were infected with PRVABC59 either at MOI 0.5 or 5 in infection medium. After 2 h of incubation with the virus, medium from cells was removed, cells were washed with phosphate buffered saline, and fresh infection medium containing 1 μM of castanospermine, celgosivir or DNJ was added to the wells. At 48 and 72 hpi, culture supernatants were harvested and stored at −80°C until use for viral RNA extraction. Viral RNA was extracted from 50 μl of sample using the MagMAX-96 Viral RNA Isolation Kit (Applied Biosystems, Foster City, CA, United States) on a MagMAX Express-96 Deep Well Magnetic Particle Processor (Applied Biosystems). The amount of ZIKV genomic RNA was measured by qRT-PCR using SuperScript® III Platinum One-Step qRT-PCR Kit on a 7500 Fast Real-Time PCR System (Applied Biosystems). The primers (F: 5′-[…]-3′, R: 5′-[…]-3′) and probe sequence (5′- FAM-TGCCCAACA/ZEN/CAAGGTGAAGCC TACCT-BHQ) were purchased from Integrated DNA Technologies (IDT; Coralville, IA, United States), and the qRT-PCR cycling conditions included an initial cDNA synthesis for 30 min at 50°C, followed by 2 min at 95°C and 45 cycles of 2-step cycling at 95°C for 15 s, then 55°C for 30 s ([Goebel et al., 2016]). The ZIKV copy numbers were quantified using a standard curve generated with serial dilutions of positive control ZIKV RNA standards derived from ZIKV with known TCID50 value. Cell culture supernatants were titrated for the infectious virus in Vero cells, and titer was expressed as TCID50 calculated using the Reed-Muench method ([Reed and Muench, 1938]).

ZIKV PRVABC59 [3] = assay: Virus yield reduction assay (qRT-PCR and TCID50) in CHME3 cells; type: cell-based, Zika virus; conditions: 1 μM, 48 hpi
Description: as §2

ZIKV strain PRVABC59 [4] = assay: Antiviral screening assay (MTS cell viability after infection) in Vero cells; type: cell-based, Zika virus; conditions: for ZIKV-induced cell death (MTS): Vero cells, PRVABC59, MOI 1, 72 hpi; for viability at 0.01 µM: Zika virus, Vero, read-out: cell viability following ZIKV infection
Description: as §1

ZIKV strain PRVABC59 [5] = assay: Antiviral screening assay (MTS cell viability after infection) in CHME3 cells; type: cell-based, Zika virus; conditions: for ZIKV-induced cell death (MTS): PRVABC59, MOI 1, 72 hpi; for viability at 0.01 µM: Zika virus, read-out: cell viability following ZIKV infection
Description: as §1

ZIKV = system: ZIKV; design: method as in Ma et al., 2018; conditions: ref Ma et al., 2018, cited from earlier work
[6] = system: activated caspases 3 and 7; assay: Measurement of apoptosis, Caspase-Glo 3/7 assay in ZIKV-infected CHME3 cells; type: cell-based, Human; conditions: PRVABC59, MOI 1, 0.01 to 1000 μM, 48 and 72 hpi
Description: Apoptotic cell death was evaluated by measuring the levels of active caspase 3 and 7 in cells using the Caspase-Glo® 3/7 Assay (Promega) following the manufacturer’s instructions. CHME3 cells in 96-well white-walled cell culture plates (Greiner Bio-One, Kremsmünster, Austria) were pre-treated with celgosivir for 2 h and then infected with PRVABC59 at MOI 1 in the presence of celgosivir at concentrations ranging from 0.01 to 1000 μM or vehicle. Controls for media color, cells, and virus were included. At 48 and 72 hpi, Caspase-Glo® Reagent was added, and after 30 min the luminescence of each sample was read five times using a Spark multimode microplate reader (TECAN, Männedorf, Switzerland) at an interval of 2 min for 15 s. The average of the five readings was used as the measurement for each biological replicate.

CHME3 cells [7] = assay: Measurement of necrosis, LDH assay in ZIKV-infected CHME3 cells; type: cell-based, Human; conditions: PRVABC59, MOI 1, 72 hpi
Description: Cell necrosis was evaluated by measuring the levels of lactate dehydrogenase (LDH) in cells using the CytoTox 96 Non-Radioactive Cytotoxicity Assay (Promega) following the manufacturer’s instructions. LDH is a soluble stable cytosolic enzyme present in many cell types which is rapidly released into the cell culture medium following disruption of the plasma membrane. LDH is a widely used marker to measure cellular cytotoxicity and necrosis. CHME3 cells in 96-well cell culture plates were pre-treated with celgosivir for 2 h and then infected with PRVABC59 at MOI 1 in the presence of celgosivir at concentrations ranging from 0.01 to 1000 μM or vehicle. Controls for media color, cells, and virus were included. At 48 and 72 hpi, 50 μl of supernatant from each well was transferred into a new 96-well plate, and 50 μl of CytoTox 96® Reagent was added to each well. After incubating at room temperature in the dark, 50 μl of Stop Solution was added to each well, and the optical density was measured at 490 nm using an ELx800 microplate reader (BioTek).

[8] = system: MDA5, RIG-I, MX1, IRF7, IFNβ, ISG15; assay: Antiviral gene expression by qRT-PCR in CHME3 cells; type: cell-based, Human; conditions: 1 μM
Description: CHME3 cells grown in 6-well plates and at 70% confluency were infected with PRVABC59 at MOI 1. After pre-incubation with the virus for 2 h, medium from cells was removed, cells were washed with PBS, and fresh infection medium containing 1 μM celgosivir was added. Negative control wells were added with infection medium without celgosivir. Three wells were used for each treatment. At 24, 48, and 72 h, total RNA was extracted from cells using the RNeasy Plus Minikit (Qiagen, Hilden, Germany) according to the manufacturer’s protocol. Complementary DNA was synthesized from 1 μg of total RNA using 4 μl of qScript cDNA SuperMix (5x) (QuantaBio, Beverly, MA, United States). qRT-PCR was performed on a 7500 Fast Real-Time PCR System (Applied Biosystems) using PowerSybr Green PCR MasterMix (Applied Biosystems) according to the manufacturer’s instructions. Expression of retinoic acid-inducible gene 1 (RIGI), melanoma differentiation-associated protein 5 (MDA5), interferon regulatory factor 7 (IRF7), interferon β (IFNβ), interferon-induced GTP-binding protein (MX1) and interferon-stimulated gene 15 (ISG15) were quantified, and hypoxanthine phosphoribosyltransferase 1 (HPRT1) was used as a house-keeping gene for data normalization. All primers used were previously published and were supplied by IDT ([Megiorni et al., 2005]; [Kim et al., 2008]; [Nasirudeen et al., 2011]; [Muramatsu et al., 2014]; [Seng et al., 2014]; [Liu et al., 2015]; [Livingstone et al., 2015]).

DENV = system: DENV; design: method as in Whitby et al., 2004; Sung et al., 2016; conditions: primary human macrophages; ref Whitby et al., 2004; Sung et al., 2016; read-out: EC50, prevention of DENV secretion; cited from earlier work
MBDK cells = system: MBDK cells; design: method as in Whitby et al., 2004; Sung et al., 2016; conditions: ref Whitby et al., 2004, Sung et al., 2016; cited from earlier work
dengue virus (DENV) = system: dengue virus (DENV); design: method as in Rathore et al., 2011; conditions: BHK-21 cells; MOI 0.3; ref Rathore et al., 2011; cited from earlier work

Row | Compound | metabolic activity (cytotoxicity, MTS) (Vero cells) | metabolic activity compared to vehicle control (cytotoxicity, MTS) (Vero cells) | metabolic activity (cytotoxicity, MTS) (CHME3 cells [1]) | metabolic activity compared to vehicle control (cytotoxicity, MTS) (CHME3 cells [1]) | PRVABC59 ZIKV RNA in supernatant compared with vehicle control (qRT-PCR) (ZIKV PRVABC59 [2]) | infectious PRVABC59 ZIKV titers (TCID50) (ZIKV PRVABC59 [2]) | infectious PRVABC59 ZIKV titers (TCID50) (ZIKV PRVABC59 [3]; MOI 0.5) | infectious PRVABC59 ZIKV titers (TCID50) (ZIKV PRVABC59 [3]; MOI 5, p ≤ 0.0433) | ZIKV-induced cell death (MTS) (ZIKV strain PRVABC59 [4]) | viability at 0.01 µM (ZIKV strain PRVABC59 [4]) | ZIKV-induced cell death (MTS) (ZIKV strain PRVABC59 [5]; CHME3 cells) | viability at 0.01 µM (ZIKV strain PRVABC59 [5]) | other results
1 | OC[C@H]1NC[C@H](O)[C@@H](O)[C@@H]1O [DNJ, 1-deoxynojirimycin hydrochloride] | decrease in metabolic activity | No reduction in metabolic activity | decrease in metabolic activity | No reduction in metabolic activity | Significant reductions | statistically significant reduction | statistically significant reduction | statistically significant reduction | reduce ZIKV-induced cell death | > 90% | reduce ZIKV-induced cell death | > 90% | –
2 | CC(C)(C)NC(=O)N(CCCCCCN1C[C@H](O)[C@@H](O)[C@H](O)[C@H]1CO)C1CCCCC1 [IHVR-19029] | – | – | – | – | – | – | – | – | – | – | – | – | ZIKV RNA production (ZIKV; HEK293 embryonic kidney cells, MOI 0.1, 0.1 μM, the lowest concentration tested): decreased ZIKV RNA production; ZIKV viral replication (ZIKV; embryonic kidney cells): reduced
3 | CCCC(=O)O[C@H]1CN2CC[C@H](O)[C@@H]2[C@@H](O)[C@@H]1O [celgosivir, 6-O-butanoyl castanospermine] | decrease in metabolic activity | No reduction in metabolic activity | decrease in metabolic activity | No reduction in metabolic activity | Significant reductions | statistically significant reduction | statistically significant reduction | statistically significant reduction | reduce ZIKV-induced cell death | > 90% | reduce ZIKV-induced cell death | > 90% | levels of activated caspases 3 and 7 in comparison to untreated infected cells [6]: did not significantly reduce; ZIKV-induced LDH activity (necrosis) (CHME3 cells [7]): reduced PRVABC59 ZIKV-induced LDH activity to levels equivalent to mock-infected cells; decrease of IFNβ expression levels ([8]; PRVABC59 ZIKV-infected CHME3 cells, treated vs not treated, 48 hpi, p = 0.033): 27%; expression levels of MDA5, RIG-I, MX1, IRF7, and ISG15, treated vs vehicle-treated ([8]; PRVABC59 ZIKV-infected CHME3 cells, any timepoint (24, 48, 72 h)): not significantly different; decrease of IFNβ gene expression ([8]; mock-infected CHME3 cells, treated vs untreated, 48 hpi, statistically significant): 22%; level of IFNβ expression, treated vs untreated ([8]; mock-infected CHME3 cells, 72 hpi): similar; EC50 (DENV): 5 µM; CC50 (MBDK cells): > 1000 µM; effectiveness against DENV relative to castanospermine (dengue virus (DENV)): 100 times
4 | O[C@H]1[C@H](O)[C@@H](O)CN2CC[C@H](O)[C@H]12 [castanospermine] | decrease in metabolic activity | No reduction in metabolic activity | decrease in metabolic activity | No reduction in metabolic activity | Significant reductions | statistically significant reduction | not statistically significant | statistically significant reduction | reduce ZIKV-induced cell death | – | reduce ZIKV-induced cell death | – | PRVABC59 ZIKV RNA in supernatant, reduction vs control cells (qRT-PCR) (ZIKV PRVABC59 [3]; MOI 5): not significant; cell viability following ZIKV infection (ZIKV strain PRVABC59 [5]; CHME3 cells, MOI 1, 10 μM required): 90%
